Earlier results, collected in article PMC6862717 (ACS chemical neuroscience, 2018).

Experiments:
[1] = test system: animal model of neuropathic pain
[2] = test system: transgenic animal model of AD
[3] = test system: nematodes
[4] = test system: wild-type mice

Row | Compound | mechanical hypersensitivity [1] | efficacy in a transgenic animal model of AD [2] | neuroprotective properties in nematodes [3] | cognitive performance in wild-type mice [4]
1 | UKH-1114 | relieves mechanical hypersensitivity | – | – | –
2 | CN1CCN(c2ccc3c(c2)[C@H]2C[C@@H]3CCN2C(=O)OCc2ccccc2)CC1 (racemic) [SAS-0132] | – | efficacious | shows neuroprotective properties | improves cognitive performance
